Like-named read-outs stand apart in the source and are kept apart here.
Biological target: human recombinant TAK1-TAB1 Kinase (TAK1 (1-303) and TAB1 (437-end)) (Homo sapiens (Human), UniProt O43318)
Assay: TAK1 biochemical ADP-Glo kinase assay
Settings: MBP substrate
Method: The usefulness of the example compounds of the invention as TAK1 inhibitors was evaluated in a biochemical ADP-Glo kinase assay. Assay kits from Promega Corporation V4089 were used according to manufacturer's instructions and adapted as outlined here. ADP-Glo Kinase Assay kit contains ADP-Glo Reagent, Kinase Detection Reagent, kinase detection buffer, ATP, and ADP. The Kinase Enzyme Systems include human recombinant TAK1-TAB1 Kinase (TAK1 (1-303) and TAB1 (437-end)), Native Swine Myelin Basic Protein (MBP) substrate, 5×kinase reaction buffer, and DTT.
Test compounds were prepared in 1:5 serial dilutions at 8 concentrations in DMSO from 10 mM stock solutions. An additional 20-fold dilution in 1× kinase reaction buffer (see below) was performed, yielding a final dilution series in kinase buffer with 5% DMSO (final concentration in assay from 20 μM to 0.26 nM, 1% DMSO). As controls, Takinib was prepared as positive control (3 μM final in assay), and DMSO without inhibitor served as negative control, at a final assay concentration of DMSO of 1%.
One μl of compound solution in 5% DMSO was added to each well in a 384 well microtiter plate (OptiPlate #6007290). Two μl TAK1-TAB1 (7.5 ng/μl) in lxkinase reaction buffer ([…] Tris base pH 7.5, 20 mM MgCl2, 50 μM DTT, 0.1 mg/ml BSA) was added and pre-incubated 10 min before adding 2 μl of a mixture of MBP substrate and ATP (0.25 μg/μL MBP/25 μM ATP or 0.25 μg/μL MBP/2.5 mM ATP) in 1× kinase reaction buffer (as above). The plate was subsequently incubated at room temperature for 1 hour. Then 5 μl ADP-Glo™ reagent from ADP-Glo™ kit (as above) was added and incubated for 40 min to stop the reaction and consume remaining ATP. Ten μl kinase detection substrate (dissolved in kinase detection buffer, both from ADP-Glo™ kit as above) was then added to convert ADP to ATP and detect ATP with luciferase/luciferin. The plate was incubated for 30 minutes at room temperature in dark before reading luminescence on an Envision (PerkinElmer) reader.
IC50 values of compounds of the invention were determined by the non-linear regression analysis of dose response curves.

[1] = 10 μM ATP, read-out: TAK1 Mean IC50 (nM) @ 10 μM ATP
[2] = 1 mM ATP, read-out: TAK1 Mean IC50 (nM) @ 1 mM ATP

Chain of human recombinant TAK1-TAB1 Kinase (TAK1 (1-303) and TAB1 (437-end)) (O43318 other isoform, or with tags, fused parts or gaps): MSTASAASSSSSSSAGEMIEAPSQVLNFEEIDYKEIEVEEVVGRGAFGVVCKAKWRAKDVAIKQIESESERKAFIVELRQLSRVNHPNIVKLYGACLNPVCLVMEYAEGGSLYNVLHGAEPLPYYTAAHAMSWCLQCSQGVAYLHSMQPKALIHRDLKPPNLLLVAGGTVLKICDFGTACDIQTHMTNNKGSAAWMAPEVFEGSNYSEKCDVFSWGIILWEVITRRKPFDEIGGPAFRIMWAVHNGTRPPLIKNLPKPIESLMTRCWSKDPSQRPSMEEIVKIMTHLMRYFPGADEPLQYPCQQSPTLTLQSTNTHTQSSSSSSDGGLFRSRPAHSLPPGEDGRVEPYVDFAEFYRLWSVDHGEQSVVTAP

SMILES | IC50 [1] [nM] | IC50 [2] [nM]
CNC(=O)c1cccc2nc3n(c12)C(C)CCCCNC(=O)c1cccc(c1)C(=O)N3 (stereo not shown) [Example 34, (E)-N,11-dimethyl-3,5-dioxo-1^2,1^3-dihydro-1^1H-2,6-diaza-1(2,1)-benzo[d]imidazola-4(1,3)-benzenacycloundecaphane-1^7-carboxamide] | 2 | 
C[C@H]1CCCCNC(=O)c2cccc(c2)C(=O)/N=C2\Nc3cccc(N4CCC(F)C4=O)c3N21 (stereo partly drawn) [Example 146, (11S,E)-1^7-(3-fluoro-2-oxopyrrolidin-1-yl)-11-methyl-1^2,1^3-dihydro-1^1H-2,6-diaza-1(2,1)-benzo[d]imidazola-4(1,3)-benzenacycloundecaphane-3,5-dione] | 5 | 9
C[C@H]1CCCCNC(=O)c2cccc(c2)C(=O)/N=C2\Nc3cccc(C(=O)N4CCC5(CCO5)C4)c3N21 (single isomer, unassigned) [Example 121] | 5 | 19
CN1CCN(Cc2ccc3c(c2)N/C2=N\C(=O)c4ccc(F)c(c4)C(=O)NCCCCCN23)CC1 [Example 103, (E)-4^4-fluoro-1^5-((4-methylpiperazin-1-yl)methyl)-1^2,1^3-dihydro-1^1H-2,6-diaza-1(2,1)-benzo[d]imidazola-4(1,3)-benzenacycloundecaphane-3,5-dione] | 3 | 
CC1CCCCNC(=O)c2cccc(c2)C(=O)/N=C2\Nc3cccc(-c4nccn4C)c3N21 (single isomer, unassigned) [Example 135, (E)-11-methyl-1^7-(1-methyl-1H-imidazol-2-yl)-1^2,1^3-dihydro-1^1H-2,6-diaza-1(2,1)-benzo[d]imidazola-4(1,3)-benzenacycloundecaphane-3,5-dione] | 6 | 
C[C@H]1CCCCNC(=O)c2cccc(c2)C(=O)/N=C2\Nc3ccnc(N4CCN(C5CC5)C4=O)c3N21 [Example 122, (S,E)-1^4-(3-cyclopropyl-2-oxoimidazolidin-1-yl)-11-methyl-1^2,1^3-dihydro-1^1H-2,6-diaza-1(2,3)-imidazo[4,5-c]pyridina-4(1,3)-benzenacycloundecaphane-3,5-dione] | 9 | 57
C[C@H]1CCCCNC(=O)c2cccc(c2)C(=O)/N=C2\Nc3cccc(C(=O)N4CC[C@@](C)(O)C4)c3N21 [Example 106, (S,E)-1^7-((R)-3-hydroxy-3-methylpyrrolidine-1-carbonyl)-11-methyl-1^2,1^3-dihydro-1^1H-2,6-diaza-1(2,1)-benzo[d]imidazola-4(1,3)-benzenacycloundecaphane-3,5-dione] |  | 6
CC1CCCCNC(=O)c2cccc(c2)C(=O)/N=C2\Nc3cccc(N4CCN(C5COC5)C4=O)c3N21 (single isomer, unassigned) [Example 143, (E)-11-methyl-1^7-(3-(oxetan-3-yl)-2-oxoimidazolidin-1-yl)-1^2,1^3-dihydro-1^1H-2,6-diaza-1(2,1)-benzo[d]imidazola-4(1,3)-benzenacycloundecaphane-3,5-dione] |  | 14
CC1CCCCNC(=O)c2cccc(c2)C(=O)/N=C2\Nc3cccc(-c4cc[nH]c(=O)c4)c3N21 (single isomer, unassigned) [Example 62, (E)-11-methyl-1^7-(2-oxo-1,2-dihydropyridin-4-yl)-1^2,1^3-dihydro-1^1H-2,6-diaza-1(2,1)-benzo[d]imidazola-4(1,3)-benzenacycloundecaphane-3,5-dione] | 12 | 
Cc1nnc(-c2cccc3c2N2/C(=N/C(=O)c4cccc(c4)C(=O)NCCCC[C@@H]2C)N3)n1C(C)C [Example 134, (S,E)-1^7-(4-isopropyl-5-methyl-4H-1,2,4-triazol-3-yl)-11-methyl-1^2,1^3-dihydro-1^1H-2,6-diaza-1(2,1)-benzo[d]imidazola-4(1,3)-benzenacycloundecaphane-3,5-dione] | 10 | 12
Cc1nnc(-c2cccc3c2N2/C(=N/C(=O)c4cccc(c4)C(=O)NCCCC[C@@H]2C)N3)n1C [Example 96, (S,E)-1^7-(4,5-dimethyl-4H-1,2,4-triazol-3-yl)-11-methyl-1^2,1^3-dihydro-1^1H-2,6-diaza-1(2,1)-benzo[d]imidazola-4(1,3)-benzenacycloundecaphane-3,5-dione] | 11 | 7
CC1CCCCNC(=O)c2cccc(c2)C(=O)/N=C2\Nc3cccc(C(=O)N4CCOC[C@H]4C)c3N21 (single isomer, unassigned) [Example 75] | 11 | 
CC1CCCCNC(=O)c2cccc(c2)C(=O)Nc2nc3cccc(C(=O)N(C)C)c3n21 (single isomer, unassigned) [Example 31, (E)-N,N,11-trimethyl-3,5-dioxo-1^2,1^3-dihydro-1^1H-2,6-diaza-1(2,1)-benzo[d]imidazola-4(1,3)-benzenacycloundecaphane-1^7-carboxamide] | 3 | 14
CC1CCCCNC(=O)c2cccc(c2)C(=O)/N=C2\Nc3cccc(-c4ncnn4C(F)F)c3N21 (single isomer, unassigned) [Example 140, (E)-1^7-(1-(difluoromethyl)-1H-1,2,4-triazol-5-yl)-11-methyl-1^2,1^3-dihydro-1^1H-2,6-diaza-1(2,1)-benzo[d]imidazola-4(1,3)-benzenacycloundecaphane-3,5-dione] |  | 6
C[C@H]1CCCCNC(=O)c2cccc(c2)C(=O)/N=C2\Nc3cccc(-c4cn(C5COC5)nn4)c3N21 [Example 129, (S,E)-11-methyl-1^7-(1-(oxetan-3-yl)-1H-1,2,3-triazol-4-yl)-1^2,1^3-dihydro-1^1H-2,6-diaza-1(2,1)-benzo[d]imidazola-4(1,3)-benzenacycloundecaphane-3,5-dione] | 6 | 6
CC1CCCCNC(=O)c2cccc(c2)C(=O)/N=C2\Nc3cccc(C(=O)N(C)CCF)c3N21 (single isomer, unassigned) [Example 71, (E)-N-(2-fluoroethyl)-N,11-dimethyl-3,5-dioxo-1^2,1^3-dihydro-1^1H-2,6-diaza-1(2,1)-benzo[d]imidazola-4(1,3)-benzenacycloundecaphane-1^7-carboxamide] | 6 | 27
C[C@@H]1CCCCNC(=O)c2cccc(c2)C(=O)/N=C2\Nc3cccc(C(=O)N4CC(C)(O)C4)c3N21 [Example 94, (R,E)-1^7-(3-hydroxy-3-methylazetidine-1-carbonyl)-11-methyl-1^2,1^3-dihydro-1^1H-2,6-diaza-1(2,1)-benzo[d]imidazola-4(1,3)-benzenacycloundecaphane-3,5-dione] | 5 | 
CC1CCCCNC(=O)c2cccc(c2)C(=O)Nc2nc3cccc(-c4nccn4C(F)F)c3n21 (single isomer, unassigned) [Example 91, (E)-1^7-(1-(difluoromethyl)-1H-imidazol-2-yl)-11-methyl-1^2,1^3-dihydro-1^1H-2,6-diaza-1(2,1)-benzo[d]imidazola-4(1,3)-benzenacycloundecaphane-3,5-dione] | 5 | 19
CN1CCN(Cc2ccc3c(c2)N/C2=N\C(=O)c4cc(ccc4F)C(=O)NCCCCCN23)CC1 [Example 105, (E)-4^6-fluoro-1^5-((4-methylpiperazin-1-yl)methyl)-1^2,1^3-dihydro-1^1H-2,6-diaza-1(2,1)-benzo[d]imidazola-4(1,3)-benzenacycloundecaphane-3,5-dione] | 6 | 
C[C@@H]1CCCCNC(=O)c2cccc(c2)C(=O)Nc2nc3cccc(-c4ncnn4C)c3n21 [Example 85, (R,E)-11-methyl-1^7-(1-methyl-1H-1,2,4-triazol-5-yl)-1^1H-2,6-diaza-1(2,1)-benzo[d]imidazola-4(1,3)-benzenacycloundecaphane-3,5-dione] | 3 | 
CC1CCCCNC(=O)c2nc(cs2)C(=O)/N=C2\Nc3cccc(C(=O)N(C)C)c3N21 (single isomer, unassigned) [Example 108, (1^2Z,4^2E)-N,N,5-trimethyl-2,11-dioxo-4^2,4^3-dihydro-4^1H-3,10-diaza-1(4,2)-thiazola-4(2,1)-benzo[d]imidazolacycloundecaphane-4^7-carboxamide] |  | 23
[2H]C([2H])([2H])N(C(=O)c1cccc2c1N1/C(=N/C(=O)c3cccc(c3)C(=O)NCCCC[C@@H]1C)N2)C([2H])([2H])[2H] [Example 118, (S,E)-11-methyl-N,N-bis(methyl-d3)-3,5-dioxo-1^2,1^3-dihydro-1^1H-2,6-diaza-1(2,1)-benzo[d]imidazola-4(1,3)-benzenacycloundecaphane-1^7-carboxamide] |  | 15

Source: patent US20240279233A1, “MACROCYCLIC TAK1 INHIBITORS” (Aqilion AB, priority 2021, published 2024)
